Data from article PMC3598812, “Evaluation of Anti-Hyperalgesic and Analgesic Effects of Two Benzodiazepines in Human Experimental Pain: A Randomized Placebo-Controlled Study” (PLoS ONE, 2013).
Values joined by “and” are separate entries in the source; they are usually repeats but may differ in a detail not shown here. Equal values may be shown once. Read-outs that look alike come from different tables or passages of the source.

Key:
[1] = trial protocol, cited from earlier work
healthy male volunteers [2] = test: Pressure pain detection and tolerance thresholds (pressure algometer, 2nd toe); type: in vivo, human; details: mean (SD)
Protocol: Pain detection and tolerance thresholds were measured with an electronic pressure algometer (Somedic, Hörby, Sweden) applied at the center of the pulp of the 2nd toe. […] The pressure was increased from 0 at a rate of 30 kPa/s to a maximum pressure of 1200 kPa. Pain detection threshold was defined as the point at which the pressure sensation turned to pain. Pain tolerance threshold was defined as the point at which the subject felt the pain as intolerable. If the threshold was not reached at 1200 kPa, this value was considered as threshold. Three assessments were made and the mean of these 3 measurements were used for the data analysis.

patients / volunteers = details: cited from earlier work
[3] = Pharmacokinetics of clobazam in plasma (LC-MS/MS); type: in vivo; details: human, po, 20 mg, clobazam 20 mg oral, mean (SD)
healthy male volunteers [4] = test: Psychomotor performance, digit symbol substitution test (DSST); details: for DSST score compared with tolterodine at 120 min: main analysis, pairwise comparison within the time-points; for DSST-score: single oral dose (clobazam 20 mg, clonazepam 1 mg, tolterodine 1 mg), mean (SD)
Protocol: The psychomotor performance was assessed by the digit symbol substitution test (DSST), a subscale of the Wechsler Adult Intelligence Scale. The DSST evaluates the ability to concentrate and modifications in processing information [23]. It is a two-minute paper-and-pencil test. The subject was asked to replace digits with corresponding symbols according to a code given on the same sheet of paper. The score consists in the total number and the correct number of symbols drawn.
Pressure pain, conditioned pain modulation (CPM), intramuscular electrical pain tests, cuff algometry and DSST were performed 120 min after drug intake.
After 15 min, the whole battery of tests was performed.

[5] = baseline before medication, per drug session
[6] = single oral dose (clobazam 20 mg, clonazepam 1 mg, tolterodine 1 mg), 120 min after medication
[7] = single oral dose (clobazam 20 mg, clonazepam 1 mg, tolterodine 1 mg), after flumazenil 0.2 mg iv
[8] = subgroup (n = 8) with peak plasma level below 180 minutes and at least 200 µg/ml
[9] = 120 min after drug administration
[10] = placebo-controlled, double-blind trial, 114 outpatients with anxiety, mean doses 59 mg clobazam daily, 25 mg diazepam daily, ref Micromedex 2009
[11] = patients treated for panic disorder, ref Micromedex 2009

Cc1ccc(O)c([C@H](CCN(C(C)C)C(C)C)c2ccccc2)c1 [Tolterodine]
Oral bioavailability ([1]; ref Micromedex 2009): 77%
Pressure pain detection threshold (healthy male volunteers [2]; [5]): 403 (118) kPa
Pressure pain tolerance threshold (healthy male volunteers [2]; [5]): 674 (221) kPa
Pressure pain detection threshold (healthy male volunteers [2]; [6]): 371 (88) kPa
Pressure pain detection threshold (healthy male volunteers [2]; [7]): 382 (118) kPa
Pressure pain tolerance threshold (healthy male volunteers [2]; [7]): 685.0 (203) kPa
Dizziness, expected side effect frequency (patients / volunteers; ref Micromedex 2009): 2%
Somnolence, expected side effect frequency (patients / volunteers; ref Micromedex 2009): 3%

CN1C(=O)CC(=O)N(c2ccccc2)c2cc(Cl)ccc21 [Clobazam]
Time to maximum plasma concentration ([1]; after 10 mg in healthy volunteers): 1.3 ± 0.2 h
Time to maximum plasma concentration ([1]; after 20 mg in healthy volunteers): 1.6 h
Time to maximum plasma concentration ([1]; general statement): about 2 h
Bioavailability ([1]; drug background): 90%
Half life (t1/2) ([1]; drug background): circa 20 h
AUC ([3]; all volunteers (n = 16)): 5460 ng·h/mL
Cmax ([3]; all volunteers (n = 16)): 370 ng/mL
Tmax ([3]; all volunteers (n = 16)): 2.28 h
half-life ([3]; all volunteers (n = 16)): 19 h
AUC [3, 8]: 6160 ng·h/mL
Cmax [3, 8]: 470 ng/mL
Tmax [3, 8]: 1.64 h
half-life [3, 8]: 17.5 h
DSST score compared with tolterodine at 120 min (healthy male volunteers [4]): not
DSST-score (healthy male volunteers [4]; [9]): 74.9 (14.7)
DSST-score (healthy male volunteers [4]; after flumazenil 0.2 mg iv): 81.1 (12.1)
Pressure pain detection threshold (healthy male volunteers [2]; [5]): 432 (123) kPa
Pressure pain detection threshold (healthy male volunteers [2]; [6]): 379 (130) kPa
Pressure pain detection threshold (healthy male volunteers [2]; [7]): 393 (118) kPa
Effect on cognitive and psychomotor functions (patients / volunteers; 20 mg clobazam, unlike 2 mg clonazepam): did not affect significantly
Sedation compared with 1 mg of clonazepam (patients / volunteers; 20 mg of clobazam): less sedative
Dizziness, share of treated patients (patients / volunteers; [10]): 2%
Sedation, share of treated patients (patients / volunteers; [10]): 38%

O=C1CN=C(c2ccccc2Cl)c2cc([N+](=O)[O-])ccc2N1 [Clonazepam]
DSST score compared with tolterodine at 120 min (healthy male volunteers [4]): significantly associated to a lower score
DSST-score (healthy male volunteers [4]; [9]): 69.3 (15.8)
DSST-score (healthy male volunteers [4]; after flumazenil 0.2 mg iv): 79.1 (14.5)
Psychomotor performance (DSST) at 120 minutes compared with the other two drugs (healthy male volunteers [4]; subgroup analysis (n = 8), pairwise multiple comparison): lower psychomotor performance
Change of DSST score after flumazenil injection (healthy male volunteers [4]; subgroup analysis (n = 8), within drug): significantly increased
Pressure pain detection threshold (healthy male volunteers [2]; [5]): 416 (80) kPa
Pressure pain tolerance threshold (healthy male volunteers [2]; [5]): 685 (172) kPa and 749 (242) kPa
Pressure pain detection threshold (healthy male volunteers [2]; [6]): 383 (100) kPa
Pressure pain tolerance threshold (healthy male volunteers [2]; [6]): 636 (147) kPa and 712 (262) kPa
Pressure pain detection threshold (healthy male volunteers [2]; [7]): 389 (112) kPa
Pressure pain tolerance threshold (healthy male volunteers [2]; [7]): 390.8 (199) kPa and 734.7 (279) kPa
Dizziness, share of patients (patients / volunteers; [11]): 8%
Somnolence, share of patients (patients / volunteers; [11]): approximately 37%
